Values joined by “and” are separate entries in the source; they are usually repeats but may differ in a detail not shown here. Equal entries are not always repeated. Where two headings read alike, the source gives them in different places. Values belong to the compound of their own block, whether it stands above or below them.
Columns and labels:
[1] = target: T1, recombinant human CYP3A4 (Baculosomes) (Homo sapiens, UniProt P08684); assay: Vivid CYP3A4 Red Screening Kit fluorimetric inhibition assay (BOMR substrate); assay type: biochemical; conditions: for IC50: Baculosomes, fluorescence, positive control KTZ, mean ± SEM; for Effect on CYP3A4 activity (in words): up to 50 µmol/L
T1 construct: purchased ThermoFisher Scientific Cat. no; 2856
Method: (§1) Flavone, galangin, resokaempferol, myricetin, and gossypetin were purchased from Indofine Chemical Company, Inc. (Hillsborough, NJ, USA). Kaempferol and scutellarein were obtained from Extrasynthese (Genay, France). […] Fisetin was obtained from Biosynth (Staad, Switzerland). […] Dimethyl sulfoxide (DMSO) was obtained from VWR International (Radnor, PA, USA), and acetonitrile was obtained from Merck KGaA (Darmstadt, Germany). The effect on CYP3A4 catalytic performance was evaluated using the Vivid® CYP3A4 Screening Kit (ThermoFischer Scientific, Waltham, MA, USA), following the indications of the manufacturer. This kit assesses how tested compounds affect the rate of fluorescence increase caused by the breakdown of a resorufin-blocked dye substrate by the human CYP3A4 enzyme. The enzyme promoted the cleavage of substrate at two different bonds, both generating a red highly fluorescent dye, in order to minimize spectral interferences caused by other compounds in the reaction medium. […] This setup helped to further circumvent interference from highly fluorescent compounds like NADPH, which are excited at UV wavelengths. […] The last enzyme and its substrate work as NADPH regenerating system since it catalyzes its formation through NADP^+, added subsequently. […] The fluorescence measurements were performed every 30 s for 30 min in a microplate reader with plate shaking and temperature control, 29 °C (Cytation 5, BIO-TEK, Winooski, VT, USA). The percentage of inhibition was calculated based on the reaction initial rates measured from the constant slope values of the fluorescence–time charts. […] The statistical analysis comprised both comparisons by the Student’s t-test for mean % inhibition and one-way analysis of variance (ANOVA) for the comparison between concentrations on the IC50. […] Differences were significant for p < 0.05.

[2] = target: T2, CYP3A4 (Homo sapiens, UniProt P08684); assay: as above; assay type: biochemical; conditions: human
T2 construct: purchased ThermoFisher Scientific Cat. no; 2856
Method: as §1

[3] = test system: CYP3A4; design: method as in PMID 31756459; conditions: cited from earlier work
[4] = test system: CYP3A4; conditions: HLM, cited from earlier work
[5] = test system: CYP3A4; conditions: RLM, HPLC, cited from earlier work
[6] = test system: CYP3A4; conditions: BCS, fluorescence, cited from earlier work
[7] = test system: CYP3A4; conditions: substrate BOMCC, enzyme not given, positive control ERYT, fluorescence; cited from earlier work
[8] = recombinant human CYP3A4 Baculosomes, pH 8, probe Vivid BOMR substrate, 50 µmol/L compound, BOMR substrate, mean ± SEM, negative = activation, read-out: CYP3A4 Inhibition (%) (50 µmol/L)
[9] = recombinant enzyme, pH 8, CYP3A4 Inhibition (%) (50 µmol/L)
[10] = substrate TST, positive control KTZ, HPLC-UV

T2 sequence (P08684 whole entry): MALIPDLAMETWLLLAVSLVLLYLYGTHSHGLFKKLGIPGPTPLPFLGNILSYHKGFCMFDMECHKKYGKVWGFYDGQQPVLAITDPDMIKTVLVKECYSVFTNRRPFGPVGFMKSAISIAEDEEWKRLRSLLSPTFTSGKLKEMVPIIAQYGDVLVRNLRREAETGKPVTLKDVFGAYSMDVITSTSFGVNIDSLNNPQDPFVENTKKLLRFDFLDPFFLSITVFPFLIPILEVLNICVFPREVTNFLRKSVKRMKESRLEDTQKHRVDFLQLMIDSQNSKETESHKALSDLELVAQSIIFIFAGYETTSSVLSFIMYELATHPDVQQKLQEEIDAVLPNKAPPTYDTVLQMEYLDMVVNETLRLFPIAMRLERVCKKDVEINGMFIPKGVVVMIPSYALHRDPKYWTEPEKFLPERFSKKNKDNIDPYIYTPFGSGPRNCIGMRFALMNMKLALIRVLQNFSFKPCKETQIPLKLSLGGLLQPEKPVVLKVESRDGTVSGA
T1 sequence (P08684 whole entry): as above

SMILES: O=c1cc(-c2ccc(O)cc2)oc2cc(O)c(O)c(O)c12 [Scutellarein]
IC50 ([1]; BOMR substrate, read-out: IC50): 19 µM and 19.1 µM

SMILES: O=c1cc(-c2ccccc2)oc2ccccc12 [Flavone]
inhibition at 30 min, 50 µmol/L [2, 8]: -179 ± 73%
Effect on CYP3A4 activity (in words) [1]: could act as an activator of the enzyme
Activation of CYP3A4 [3]: 94.65 ± 7.10%

SMILES: O=c1c(O)c(-c2cc(O)c(O)c(O)c2)oc2cc(O)cc(O)c12 [Myricetin]
inhibition at 30 min, 50 µmol/L [2, 9]: 32 ± 12%

SMILES: O=c1c(O)c(-c2ccc(O)cc2)oc2cc(O)ccc12 [Resokaempferol]
inhibition at 30 min, 50 µmol/L [2, 8]: 38 ± 7%

SMILES: O=C1C[C@@H](c2ccc(O)cc2)Oc2cc(O)cc(O)c21 [Naringenin]
inhibition at 30 min, 50 µmol/L [2, 8]: -11 ± 5%
Effect on CYP3A4 activity (in words) [1]: no inhibitory effect was noticed

SMILES: O=c1c(O)c(-c2ccc(O)c(O)c2)oc2c(O)c(O)cc(O)c12 [Gossypetin]
inhibition at 30 min, 50 µmol/L [2, 9]: ≥ 50%
IC50 ([1]; IC50, BOMR substrate): 40 µM and 40.1 µM

SMILES: O=c1cc(-c2ccccc2)oc2cc(O)c(O)c(O)c12 [Baicalein]
IC50 ([4]; different substrates, fluorescence): 7.56 to 26.4 µM
IC50 [4, 10]: 9.6 ± 1.18 µM
IC50 ([5]; substrate TST): 12 µM
IC50 ([1]; IC50, BOMR substrate): 15 ± 5 µM
IC50 ([6]; substrate BFC, positive control KTZ): 9.2 µM

SMILES: O=c1cc(-c2ccccc2)oc2cc(O)cc(O)c12 [Chrysin]
inhibition at 30 min, 50 µmol/L [2, 9]: 28 ± 17%

Now from value to compound, other results behind:

inhibition at 30 min, 50 µmol/L [2, 8]: 4 ± 9%
SMILES: O=c1c(O)c(-c2ccccc2)oc2cc(O)cc(O)c12 [Galangin]

inhibition at 30 min, 50 µmol/L [2, 8]: 38 ± 11%
SMILES: O=c1c(O)c(-c2ccc(O)cc2O)oc2cc(O)cc(O)c12 [Morin]

IC50 ([1]; BOMR substrate, read-out: IC50): 32 µM and 31.5 µM
SMILES: O=c1c(O)c(-c2ccc(O)cc2)oc2c(O)c(O)cc(O)c12 [Herbacetin]
IC50 ([4]; UPLC-MS/MS): < 10 µM

inhibition at 30 min, 50 µmol/L [2, 8]: ≥ 50%
SMILES: O=c1c(O)c(-c2ccc(O)c(O)c2)oc2cc(O)cc(O)c12 [Quercetin]

inhibition at 30 min, 50 µmol/L [2, 9]: 23 ± 8%
SMILES: O=c1cc(-c2ccc(O)cc2)oc2cc(O)cc(O)c12 [Apigenin]

inhibition at 30 min, 50 µmol/L [2, 8]: 24 ± 8%
SMILES: O=c1c(O)c(-c2ccc(O)cc2)oc2cc(O)cc(O)c12 [Kaempferol]

inhibition at 30 min, 50 µmol/L [2, 8]: 30 ± 13%
SMILES: O=c1c(O)c(-c2ccc(O)c(O)c2)oc2cc(O)ccc12 [Fisetin]

inhibition at 30 min, 50 µmol/L [2, 8]: ≥ 50%
IC50 ([1]; BOMR substrate, read-out: IC50): 31 µM and 31.2 µM
SMILES: O=c1cc(-c2ccc(O)c(O)c2)oc2cc(O)cc(O)c12 [Luteolin]
IC50 [4, 10]: 4.62 ± 1.26 µM
IC50 ([4]; substrate TST, positive control KTZ, RP-HPLC): 6.8 µM
IC50 [7]: 57.1 ± 16.1 µM

— PMC11940229, “How Plant Polyhydroxy Flavonoids Can Hinder the Metabolism of Cytochrome 3A4” (Biomedicines, 2025)
